Type in all cases: functional
Experiment [1] concerns SW-620. The experiment can be described thus: Antitumor activity against human SW620 cells at 50 uM after 48 hrs by Sulforhodamine assay. To be noted: SW-620, 48 h, read-out: GI.
The test system of experiment [2] is A549. The experiment in a line: Antitumor activity against human A549 cells at 50 uM after 48 hrs by Sulforhodamine assay. To be noted: A549, 48 h, read-out: GI.
The test system of experiment [3] is IGROV-1. The experiment can be described thus: Antitumor activity against human IGROV1 cells at 50 uM after 48 hrs by Sulforhodamine assay. To be noted: IGROV-1, 48 h, read-out: GI.
In experiment [4] the test system is IMR-32. The experiment in a line: Antitumor activity against human IMR32 cells at 50 uM after 48 hrs by Sulforhodamine assay. To be noted: IMR-32, 48 h, read-out: GI.
For experiment [5], the system named is HCT-15. The experiment in a line: Antitumor activity against human HCT15 cells at 50 uM after 48 hrs by Sulforhodamine assay. To be noted: HCT-15, 48 h, read-out: GI.
Experiment [6] has as its system IMR-32. The experiment can be described thus: Antitumor activity against human IMR32 cells at 1 uM after 48 hrs by Sulforhodamine assay. To be noted: IMR-32, 48 h, read-out: GI.
Experiment [7] concerns SW-620. The experiment in a line: Antitumor activity against human SW620 cells at 20 uM after 48 hrs by Sulforhodamine assay. To be noted: SW-620, 48 h, read-out: GI.
Experiment [8] deals with HCT-15. The experiment can be described thus: Antitumor activity against human HCT15 cells at 20 uM after 48 hrs by Sulforhodamine assay. To be noted: HCT-15, 48 h, read-out: GI.
Experiment [9] has as its system A549. The experiment can be described thus: Antitumor activity against human A549 cells at 10 uM after 48 hrs by Sulforhodamine assay. To be noted: A549, 48 h, read-out: GI.
Experiment [10] relates to IGROV-1. The experiment can be described thus: Antitumor activity against human IGROV1 cells at 10 uM after 48 hrs by Sulforhodamine assay. To be noted: IGROV-1, 48 h, read-out: GI.

Consider `C[C@@H]1CC[C@H]2[C@@H](C)C(=O)O[C@@H]3O[C@@]4(C)OO[C@@]32[C@H]1C[C@H]4O`, for which the inhibition of growth at 50 µM was 0% in the experiment on SW-620 [1]; 18% in the experiment on A549 [2]; 3% in the experiment on IGROV-1 [3]; 20% with IMR-32 [4]; 28% in the experiment with HCT-15 [5].
For `CC(=O)O[C@H]1C[C@H]2[C@H](C)CC[C@H]3[C@@H](C)C(=O)O[C@@H]4O[C@@]1(C)OO[C@]423` the same measures were 0%, 28%, 10%, 31% and 32%.
In the same order, the values of `C[C@@H]1CC[C@H]2[C@@H](C)C(=O)O[C@@H]3O[C@@]4(C)CC[C@@H]1[C@]32OO4` [ARTEMISININ] are 35%, 29%, 26%, 23% and 31%.
`COc1cccc2c1C(=O)c1c(O)c3c(c(O)c1C2=O)C[C@@](O)(C(=O)CO)C[C@@H]3O[C@H]1C[C@H](N)[C@H](O)[C@H](C)O1` [DOXORUBICIN]: the inhibition of growth at 1 µM in the experiment on IMR-32 [6] amounted to 72%.
With `O=c1[nH]cc(F)c(=O)[nH]1` [FLUOROURACIL], the inhibition of growth at 20 µM in the experiment on SW-620 [7] was 54%; with HCT-15 [8] it was 49%.
With `CC(=O)O[C@H]1C(=O)[C@@]2(C)[C@H]([C@H](OC(=O)c3ccccc3)[C@]3(O)C[C@H](OC(=O)[C@H](O)[C@@H](NC(=O)c4ccccc4)c4ccccc4)C(C)=C1C3(C)C)[C@]1(OC(C)=O)CO[C@@H]1C[C@@H]2O` [PACLITAXEL], the inhibition of growth at 10 µM worked out at 52% in the experiment on A549 [9] and 56% with IGROV-1 [10].
